Consider 13 compounds from patent US20100093865A1, “SULPHUR-LINKED COMPOUNDS FOR TREATING OPHTHALMIC DISEASES AND DISORDERS” (Acucela, Inc., priority 2008, published 2010).

Assay [1] deals with T1, recombinant human RPE65 and LRAT (visual cycle isomerase) (Homo sapiens, UniProt Q16518).
T1 construct: expressed in transfected cells; host or cells: HEK293 cell clone (homogenate); CRALBP made in E. coli TOP10
T1 sequence (Q16518 2-533 limits assumed): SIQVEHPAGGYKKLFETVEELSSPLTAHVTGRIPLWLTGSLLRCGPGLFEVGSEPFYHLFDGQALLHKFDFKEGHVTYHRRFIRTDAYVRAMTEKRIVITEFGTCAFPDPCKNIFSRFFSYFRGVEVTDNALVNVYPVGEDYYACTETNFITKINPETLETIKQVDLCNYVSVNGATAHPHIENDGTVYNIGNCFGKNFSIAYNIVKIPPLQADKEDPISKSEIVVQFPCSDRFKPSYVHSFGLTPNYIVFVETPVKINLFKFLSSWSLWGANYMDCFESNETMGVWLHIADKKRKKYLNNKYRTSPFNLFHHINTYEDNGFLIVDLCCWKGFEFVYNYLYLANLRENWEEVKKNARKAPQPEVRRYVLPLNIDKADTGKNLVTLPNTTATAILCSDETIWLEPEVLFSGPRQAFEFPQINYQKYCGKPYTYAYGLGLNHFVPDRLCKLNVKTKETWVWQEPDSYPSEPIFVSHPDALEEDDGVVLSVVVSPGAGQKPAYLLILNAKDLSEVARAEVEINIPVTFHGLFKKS
The assay can be described thus: Human in vitro isomerase inhibition assay. The class given is biochemical. The protocol:
The capability of sulphur-linked compounds to inhibit the activity of a visual cycle isomerase was determined in vitro either in a human or bovine-based assay system.
Recombinant human apo cellular retinaldehyde-binding protein (CRALBP) was cloned and expressed according to standard methods in the molecular biology art (see Crabb et al., Protein Science 7:746-57 (1998); Crabb et al., J. Biol. Chem. 263:18688-92 (1988)). Briefly, total RNA was prepared from confluent ARPE19 cells (American Type Culture Collection, Manassas, Va.), cDNA was synthesized using an oligo(dT)12-18 primer, and then DNA encoding CRALBP was amplified by two sequential polymerase chain reactions (see Crabb et al., J. Biol. Chem. 263:18688-92 (1988); Intres, et al., J. Biol. Chem. 269:25411-18 (1994); GenBank Accession No. L34219.1). The PCR product was sub-cloned into pTrcHis2-TOPO TA vector according to the manufacturer's protocol (Invitrogen Inc., Carlsbad, Calif.; catalog no. K4400-01), and then the sequence was confirmed according to standard nucleotide sequencing techniques. Recombinant 6×His-tagged human CRALBP was expressed in One Shot TOP 10 chemically competent E. coli cells (Invitrogen), and the recombinant polypeptide was isolated from E. coli cell lysates by nickel affinity chromatography using nickel (Ni) Sepharose XK16-20 columns for HPLC (Amersham Bioscience, Pittsburgh, Pa.; catalog no. 17-5268-02). The purified 6×His-tagged human CRALBP was dialyzed against 10 mM bis-tris-Propane (BTP) and analyzed by SDS-PAGE. The molecular weight of the recombinant human CRALBP was approximately 39 kDal.
The concentration dependent effect of the compounds disclosed herein on the retinol isomerization reaction were evaluated with a recombinant human enzyme system. […] A homogenate of HEK293 cell clone expressing recombinant human RPE65 and LRAT were the source of the visual enzymes, and exogenous all-trans-retinol (about 20 μM) was used as the substrate. Recombinant human CRALBP (about 80 ug/mL) was added to enhance the formation of 11-cis-retinal. The 200 μL Bis-Tris Phosphate buffer (10 mM, pH 7.2) based reaction mixture also contains 0.5% BSA, and 1 mM NaPPi. In this assay, the reaction was carried out at 37° C. in duplicates for one hour and was terminated by addition of 300 μL methanol. The amount of reaction product, 11-cis-retinol, was measured by HPLC analysis following Heptane extraction of the reaction mixture. […] The ability of the compounds disclosed herein to inhibit isomerization reaction is quantified and the respective IC50 value is determined. Table 2 summarizes the IC50 values of all the compounds of the present disclosure. […] The production of 11-cis-retinol was measured at different doses of compound administration.

A further assay has as its target T2, isomerase (Mus musculus, UniProt Q91ZQ5).
T2 construct: from tissue; host or cells: eye of living mice (CD-1; Balb/c also mentioned)
T2 sequence (Q91ZQ5 1-533): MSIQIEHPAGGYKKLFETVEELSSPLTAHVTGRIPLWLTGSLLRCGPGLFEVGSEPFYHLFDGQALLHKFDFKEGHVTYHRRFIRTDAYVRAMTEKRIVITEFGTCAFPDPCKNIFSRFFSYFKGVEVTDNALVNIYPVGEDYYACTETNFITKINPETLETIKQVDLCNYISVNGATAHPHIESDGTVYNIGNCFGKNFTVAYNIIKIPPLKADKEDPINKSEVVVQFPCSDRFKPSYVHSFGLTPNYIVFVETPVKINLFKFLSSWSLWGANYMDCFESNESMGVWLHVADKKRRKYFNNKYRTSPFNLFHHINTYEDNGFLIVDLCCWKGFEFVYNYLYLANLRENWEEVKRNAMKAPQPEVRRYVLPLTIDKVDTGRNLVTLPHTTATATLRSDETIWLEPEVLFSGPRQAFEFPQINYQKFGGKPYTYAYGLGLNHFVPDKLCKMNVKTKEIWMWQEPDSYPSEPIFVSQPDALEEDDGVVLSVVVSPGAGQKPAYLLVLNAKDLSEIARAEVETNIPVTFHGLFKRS
The assay can be described thus: In vivo murine isomerase assay. Conditions: oral, mice, 11-cis-retinal (oxime) recovery after photobleaching. As for the experimental part:
The capability of sulphur-linked compounds to inhibit isomerase is determined by an in vivo murine isomerase assay. Brief exposure of the eye to intense light (“photobleaching” of the visual pigment or simply “bleaching”) is known to photo-isomerize almost all 11-cis-retinal in the retina. The recovery of 11-cis-retinal after bleaching can be used to estimate the activity of isomerase in vivo. Delayed recovery, as represented by lower 11-cis-retinal oxime levels, indicates inhibition of isomerization reaction. […] See also Deigner et al., Science, 244: 968-71 (1989); Gollapalli et al., Biochim Biophys Acta. 1651: 93-101 (2003); Parish, et al., Proc. Natl. Acad. Sci. USA, 14609-13 (1998); Radu, et al., Proc Natl Acad Sci USA 101: 5928-33 (2004).
About six-week old dark-adapted CD-1 (albino) male mice are orally gavaged with compound (0.01-25 mg/kg) dissolved in an appropriate amount of oil (about 100 μl corn oil containing 10% ethanol, at least five animals per group). Mice are gavaged with the sulphur-linked compounds described in the present disclosure. After about 2-24 hours in the dark, the mice are exposed to photobleaching of about 5,000 lux of white light for 10 minutes. The mice are allowed to recover for about 2 hours in the dark. The animals are then sacrificed by carbon dioxide inhalation. Retinoids are extracted from the eye and the regeneration of 11-cis-retinal is assessed at various time intervals.
All steps are performed in darkness with minimal redlight illumination (low light darkroom lights and red filtered flashlights for spot illumination as needed) (see, e.g., Maeda et al., J. Neurochem 85:944-956, 2003; Van Hooser et al., J Biol Chem 277:19173-82, 2002). After the mice are sacrificed, the eyes are immediately removed and placed in liquid nitrogen for storage.
The eyes are placed in about 500 μL of bis-tris propane buffer (10 mM, pH ˜7.3) and about 20 μL of 0.8M hydroxylamine (pH-7.3). The eyes are cut up into small pieces with small iris scissors and then thoroughly homogenized at 30000 rpm with a mechanical homogenizer (Polytron PT 1300 D) in the tube until no visible tissue remains. About […] of methanol and about 500 μL of heptane are added to each tube. The tubes are attached to a vortexer so that the contents are mixed thoroughly for about 15 minutes in room temperature. The organic phase is separated from the aqueous phase by centrifugation for about 10 min at 13K rpm, 4° C. 240 μL of the solution from the top layer (organic phase) is removed and transferred to clean 300 μl glass inserts in HPLC vials using glass pipette and the vials are crimped shut tightly.
The samples are analyzed on an Agilent 1100 HPLC system with normal phase column: SILICA (Beckman Coutlier, dp 5 μm, […]). The running method has a flow rate of 1.5 ml/min; solvent components are 15% solvent 1 (1% isopropanol in ethyl acetate), and 85% solvent 2 (100% hexanes). Loading volume for each sample is about 100 μl; detection wavelength is 360 nm. The area under the curve for 11-cis-retinal oxime is calculated by Agilent Chemstation software and recorded manually. Data processing is performed using Prizm software.
[…] control mice (no compound administered) are sacrificed fully dark-adapted and the eye retinoids analyzed. Light (bleached) control mice (no compound administered) are sacrificed and retinoids isolated and analyzed immediately after light treatment.
A dose response in vivo isomerase inhibition study is performed with the compounds of the present disclosure. Male or female mice (such as Balb/c mice) (at least about 8/group) are dosed orally with about 0.01 to 25 mg/kg of the compounds of HCl salts of the compounds in sterile water as solution, and photobleached about 4 hours after dosing. Recovery and retinoid analysis is performed as described above. Dark control mice are vehicle-only treated, sacrificed fully dark adapted without light treatment, and analyzed. […]

For the compound `NCCCc1cccc(S(=O)(=O)CC2CCCCC2)c1` [Example 5, 3-(3-(cyclohexylmethylsulfonyl)phenyl)propan-1-amine], the “inhibition of 11-cis-retinol production” value in assay [1] is recorded as “dose-dependent inhibition”. In addition, on isomerase, the “% Inibition 0.3 mg/kg, 4 h” value is 1.1% and the “% Inibition 1.0 mg/kg, 4 h” value was −12.1%. For the compound `NCCC(O)c1cccc(SCC2CCCCC2)c1` (centres unmarked) [Example 8, 3-amino-1-(3-(cyclohexylmethylthio)phenyl)propan-1-ol], on isomerase, the “% Inibition 1.0 mg/kg, 4 h” value is reported as −14.2%. As for `NCCC(O)c1cccc(S(=O)(=O)CC2CCCCC2)c1` (centres unmarked) [Example 9, 3-amino-1-(3-(cyclohexylmethylsulfonyl)phenyl)propan-1-ol], at isomerase, the “% Inibition 0.3 mg/kg, 4 h” value came out at 3.7% and the “% Inibition 1.0 mg/kg, 4 h” value turned out to be 20.3%.

As to `NCCC(=O)c1cccc(S(=O)(=O)CC2CCCCC2)c1` [Example 10, 3-amino-1-(3-(cyclohexylmethylsulfonyl)phenyl)propan-1-one], the “% Inibition 1.0 mg/kg, 4 h” value on isomerase was 79.3%. As to `NC/C=C/c1cccc(SCC2CCCCC2)c1` [Example 11, (E)-3-(3-(cyclohexylmethylthio)phenyl)prop-2-en-1-amine], in assay [1], the “inhibition of 11-cis-retinol production” value was “dose-dependent inhibition”. Still for that read-out and setting: with `NC/C=C/c1cccc(S(=O)(=O)CC2CCCCC2)c1` [Example 14, (E)-3-(3-(cyclohexylmethylsulfonyl)phenyl)prop-2-en-1-amine] the entry was “dose-dependent inhibition”.

`NCC[C@@H](O)c1cccc(SCC2CCCCC2)c1` [Example 17, (R)-3-amino-1-(3-(cyclohexylmethylthio)phenyl)propan-1-ol]: the “inhibition of 11-cis-retinol production” value in assay [1] is “dose-dependent inhibition”. At isomerase, the “% Inibition 1.0 mg/kg, 4 h” value came out at 33.4%. For the compound `CCCCSc1cccc([C@H](O)CCN)c1` [Example 18, (R)-3-amino-1-(3-(butylthio)phenyl)propan-1-ol], the “% Inibition 1.0 mg/kg, 4 h” value at isomerase worked out at 68.6%. Still for that read-out and setting: the figure for `NCCC(O)c1cccc(SCC2(O)CCCCC2)c1` (centres unmarked) [Example 27, 1-((3-(3-amino-1-hydroxypropyl)phenylthio)methyl)cyclohexanol] is 14.8%; for `[2H]C([2H])(N)CC(O)c1cccc(SCC2CCCCC2)c1` (centres unmarked) [Example 45, 3-amino-1-(3-(cyclohexylmethylthio)phenyl)-3,3-dideuteropropan-1-ol] it is 87.1%.

For the compound `[2H]C([2H])(Sc1cccc(C(O)CCN)c1)C1CCCCC1` (centres unmarked) [Example 49, 3-amino-1-(3-(cyclohexyldideuteromethylthio)phenyl)propan-1-ol], the “% Inibition 1.0 mg/kg, 4 h” value on isomerase was −8.5%. In the case of `[2H]C([2H])(C1CCCCC1)S(=O)(=O)c1cccc(C(O)CCN)c1` (centres unmarked) [Example 50, 3-amino-1-(3-(cyclohexyldideuteromethylsulfonyl)phenyl)propan-1-ol], the “% Inibition 1.0 mg/kg, 4 h” value at isomerase is given as −1.6%.

For the compound `[2H]C1([2H])C([2H])([2H])C([2H])([2H])C([2H])(CSc2cccc(C(O)CCN)c2)C([2H])([2H])C1([2H])[2H]` (centres unmarked) [Example 53, 3-amino-1-(3-((perdeuterocyclohexyl)methylthio)phenyl)propan-1-ol], at isomerase, the “% Inibition 1.0 mg/kg, 4 h” value is given as −4.9%.
